{"source": "the supplement of paper PMC10307832", "assay_in_all_cases": "relative viability (nuclei count vs DMSO), 5 days (fraction); higher = more cells survive", "key": {"Adavosertib + Lapatinib": {"compound": "C=CCn1c(=O)c2cnc(Nc3ccc(N4CCN(C)CC4)cc3)nc2n1-c1cccc(C(C)(C)O)n1 [Adavosertib] + CS(=O)(=O)CCNCc1ccc(-c2ccc3ncnc(Nc4ccc(OCc5cccc(F)c5)c(Cl)c4)c3c2)o1 [Lapatinib] (partner 2 µM)", "procedure,_shortened": "(§1)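 A single step with final 0.05% Triton X-100, 1% formaldehyde and 1 ug/ml Hoechst fixed the cells and stained nuclei 5 days after treatment. Lung cancer cell lines in 1536-well plates had been treated by pin tool the day after seeding with one drug alone or a fixed anchor-drug dose plus five library-drug doses (not always all listed) in √10 steps, and nuclei were counted on 4× images. Relative viability is the ratio of nuclei in treated wells to nuclei in vehicle wells, taken as the median of duplicate plates.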"}, "Adavosertib + Linsitinib": {"compound": "C=CCn1c(=O)c2cnc(Nc3ccc(N4CCN(C)CC4)cc3)nc2n1-c1cccc(C(C)(C)O)n1 [Adavosertib] + C[C@]1(O)C[C@@H](c2nc(-c3ccc4ccc(-c5ccccc5)nc4c3)c3c(N)nccn32)C1 [Linsitinib] (partner 1 µM)", "procedure,_shortened": "as §1"}, "Adavosertib + Alpelisib": {"compound": "C=CCn1c(=O)c2cnc(Nc3ccc(N4CCN(C)CC4)cc3)nc2n1-c1cccc(C(C)(C)O)n1 [Adavosertib] + Cc1nc(NC(=O)N2CCC[C@H]2C(N)=O)sc1-c1ccnc(C(C)(C)C(F)(F)F)c1 [Alpelisib] (partner 2 µM)", "procedure,_shortened": "as §1"}, "Adavosertib + Olaparib": {"compound": "C=CCn1c(=O)c2cnc(Nc3ccc(N4CCN(C)CC4)cc3)nc2n1-c1cccc(C(C)(C)O)n1 [Adavosertib] + O=C(c1cc(Cc2n[nH]c(=O)c3ccccc23)ccc1F)N1CCN(C(=O)C2CC2)CC1 [Olaparib] (partner 8 µM)", "procedure,_shortened": "as §1"}, "Nelarabine + Pemetrexed": {"compound": "COc1nc(N)nc2c1ncn2[C@@H]1O[C@H](CO)[C@@H](O)[C@@H]1O [Nelarabine] + Nc1nc2[nH]cc(CCc3ccc(C(=O)N[C@@H](CCC(=O)O)C(=O)O)cc3)c2c(=O)[nH]1 [Pemetrexed] (partner 0.2 µM)", "procedure,_shortened": "as §1"}}}
{"cell line": "EMC-BAC-2", "values": [{"measurement": "relative viability", "setting": "Adavosertib + Lapatinib; first compound 0.01 µM", "result": 0.882}, {"measurement": "relative viability", "setting": "Adavosertib + Lapatinib; first compound 0.03162 µM", "result": 0.869}, {"measurement": "relative viability", "setting": "Adavosertib + Lapatinib; first compound 0.1 µM", "result": 0.927}, {"measurement": "relative viability", "setting": "Adavosertib + Lapatinib; first compound 0.3162 µM", "result": 0.978}, {"measurement": "relative viability", "setting": "Adavosertib + Linsitinib; first compound 0.01 µM", "result": 0.823}, {"measurement": "relative viability", "setting": "Adavosertib + Linsitinib; first compound 0.03162 µM", "result": 0.798}, {"measurement": "relative viability", "setting": "Adavosertib + Linsitinib; first compound 0.1 µM", "result": 0.862}, {"measurement": "relative viability", "setting": "Adavosertib + Linsitinib; first compound 0.3162 µM", "result": 0.751}, {"measurement": "relative viability", "setting": "Adavosertib + Alpelisib; first compound 0.01 µM", "result": 0.736}, {"measurement": "relative viability", "setting": "Adavosertib + Alpelisib; first compound 0.03162 µM", "result": 0.737}, {"measurement": "relative viability", "setting": "Adavosertib + Alpelisib; first compound 0.1 µM", "result": 0.722}, {"measurement": "relative viability", "setting": "Adavosertib + Alpelisib; first compound 0.3162 µM", "result": 0.678}, {"measurement": "relative viability", "setting": "Adavosertib + Olaparib; first compound 0.03162 µM", "result": 0.493}, {"measurement": "relative viability", "setting": "Adavosertib + Olaparib; first compound 0.1 µM", "result": 0.51}, {"measurement": "relative viability", "setting": "Adavosertib + Olaparib; first compound 0.3162 µM", "result": 0.453}, {"measurement": "relative viability", "setting": "Nelarabine + Pemetrexed; first compound 0.01 µM", "result": 0.44}, {"measurement": "relative viability", "setting": "Nelarabine + Pemetrexed; first compound 0.03162 µM", "result": 0.456}, {"measurement": "relative viability", "setting": "Nelarabine + Pemetrexed; first compound 0.1 µM", "result": 0.502}, {"measurement": "relative viability", "setting": "Nelarabine + Pemetrexed; first compound 0.3162 µM", "result": 0.52}, {"measurement": "relative viability", "setting": "Nelarabine + Pemetrexed; first compound 1 µM", "result": 0.508}]}
